{"source": "patent US12115222B2", "about": "“Compositions and methods for improving the solubility of erectile dysfunction therapeutics” (Villya LLC, priority 2023, dated 2024)", "key": {"[1]": {"test_system": "S. mansoni newly transformed schistosomula (NTS)"}, "[2]": {"excerpt": "After solubilizing the sugar and the compound in ethanol or aqueous ethanol, the ethanol is evaporated for example under a high rotary vacuum. The powder resulting from the evaporation step is then resolubilized (dissolved) in water. Another solvent can be methanol at 80% methanol, 95% (ACS grade) or greater (to 100% methanol) as well as combinations of methanol and ethanol or methanol and water. After solubilizing the sugar and the compound in ethanol or aqueous ethanol, the ethanol is evaporated for example under a high rotary vacuum. The powder resulting from the evaporation step is then resolubilized (dissolved) in water.\nGenerally, ingredients are deposited into a sealed container with ethanol and vortex-mixed to form a solution. The solution is subjected to centrifugation. The ethanol is evaporated off and the dried mixture was dissolved in water. This mixture is centrifuged again and the supernatant is filtered through a membrane. […] In one embodiment, the admixing process involves dissolving the PSD and sugar in the ethanol while stirring and adjusting the pH as necessary to obtain complete dissolution and a clear reaction mixture. The reaction mixture can then be dried to remove the ethanol. No further water washing or filtering is needed.\nIn this example, an oven-dried single-neck RB flask equipped with a magnetic stir bar was used. […] The reaction mixture was vigorously stirred at room temperature for 30 min at 20° C. […] The white solid was dried using vacuum drying performed at room temperature and a high vacuum pump for about one hour to remove the ethanol (EtOH) completely using an Edvards Model #RV8 […], a Heidolph type Basis Hei-VAP Value, No. 560-00000-0101. The high vacuum pump was connected to a cooling trap and the trap was connected to the RB flask. Vacuum strength was about 1 mm Hg.\nThe white foamy solid was dried over a high vacuum at room temperature for an additional hour to remove the water completely, by ascertaining changes in weight loss. Drying continued until further weight loss was not observed.\nStep 1: In an oven-dried single neck RB flask equipped with magnetic stir and septa (flask cap), 5 mg sildenafil (0.01054 mmol) and 16.95 mg stevioside (1:2 molar ratio) were weighed into the RB flask and dissolved in 85% ethanol (˜2.0 mL, denatured 85% ethanol) at ambient temperature. The reaction mixture was vigorously stirred at room temperature for 30 min. […] The white solid was dried over a high vacuum for an hour to remove the ethanol completely (no further reduction in weight was observed).\nStep 2: The obtained white solid was then dissolved in 2.0 mL water at room temperature in an RB flask with a magnetic stir bar. The reaction mixture was stirred at ambient temperature for 30 min. […] The white foamy solid was dried over a high vacuum at room temperature for an additional hour to remove the water completely. The weight of the flask was checked while drying until no further weight loss was observed."}, "[3]": {"settings": "drug alone; cited from earlier work"}, "[4]": {"assay": "Stability of the dissolved complex on standing (precipitate)", "type": "physicochemical", "protocol": "[…] […] The clear solution was then dried as described in Step 2 in Example 8. The 10 mg dried solid was then dissolved in 0.6 mL D20.\nFor NMR, 10 mg of the solid sample obtained was dissolved in 0.6 mL D20. The dissolved 10 mg sample again produced a clear and homogeneous solution. […] The complex in D20 remained stable for 9 days without any observable precipitate forming."}, "[5]": {"assay": "Non-caloric sugar solubility in water and 95% ethanol", "protocol": "In this experiment, the following sugars were compared for solubility: rubusoside, dulcoside A, rebaudioside B, dulcoside B, and rebaudioside D. Approximately 5.0 mg of each sugar was attempted to be dissolved in 0.6 mL water and vortexed for 2 minutes at room temperature.\nIn another experiment, 50 mg stevia was dissolved in either 2.0 mL water or 2.0 mL 95% ethanol."}, "[6]": {"settings": "cited from earlier work"}, "[7]": {"settings": "approximately 5.0 mg in 0.6 mL water, vortexed 2 minutes, room temperature"}}, "note": "Where “and” joins values, the source holds several entries; their conditions need not be identical. Equal values may be shown once. Read-outs that look alike come from different tables or passages of the source.", "data": [{"compound": "O=C(C1CCCCC1)N1CC(=O)N2CCc3ccccc3C2C1", "note": "(centres unmarked) [Praziquantel]", "values": [{"measurement": "24 hr Exposure LD50", "setting": "[1]; 24 hr exposure", "value": "33.5 ± 5.71", "unit": "µM"}, {"measurement": "72 hr exposure LD50", "setting": "[1]; 72 hr exposure (table)", "value": "24.3 ± 0.67", "unit": "µM"}, {"measurement": "LD50", "setting": "[1]; exposure after 72 hours", "value": "33.9 ± 0.64", "unit": "µM"}, {"measurement": "solubility by 1H-NMR", "setting": "[2]", "value": 0.65}, {"measurement": "solubility by 1H-NMR analysis", "setting": "[2]", "value": 0.89}, {"measurement": "solubility for the drug by 1H-NMR analysis", "setting": "[2]", "value": 1.73}, {"measurement": "solubility in 95% ethanol with Dulcoside A", "setting": "[2]", "value": "insoluble"}, {"measurement": "solubility in 95% ethanol with rebaudioside B", "setting": "[2]", "value": "insoluble"}, {"measurement": "solubility in 95% ethanol with rebaudioside D", "setting": "[2]", "value": "insoluble"}, {"measurement": "solubility in water by NMR", "setting": "[2]", "value": "only partial solubility"}, {"measurement": "solubility in water in complex with dulcoside B", "setting": "[2]", "value": "well soluble"}, {"measurement": "solubility in water with D-fructose (NMR)", "setting": "[2]", "value": "did not make praziquantel soluble or more soluble"}, {"measurement": "solubility in water with rebaudioside D", "setting": "[2]", "value": "insoluble"}, {"measurement": "Solubility of Praziquantel In Ethanol (95%), without sugar", "setting": "[3]", "value": 9.7, "unit": "g/100 mL"}, {"measurement": "Solubility of Praziquantel In Water, without sugar", "setting": "[3]", "value": 0.04, "unit": "g/100 mL"}, {"measurement": "time until the water solution became white and turbid", "setting": "[4]; Example 16, praziquantel:rubusoside 1:2 molar, 0.1 N HCl, pH ~4.7", "value": 15, "unit": "min"}]}, {"compound": "CCCc1nn(C)c2c(=O)[nH]c(-c3cc(S(=O)(=O)N4CCN(C)CC4)ccc3OCC)nc12", "note": "[Sildenafil, 5-[2-ethoxy-5-(4-methylpiperazin-1-yl)sulfonylphenyl]-1-methyl-3-propyl-6H-pyrazolo[4,3-d]pyrimidin-7-one]", "values": [{"measurement": "solubility in water by 1H-NMR", "setting": "[2]", "value": 100, "unit": "%"}, {"measurement": "solubility in water by NMR", "setting": "[2]; 30 min", "value": 100, "unit": "%"}, {"measurement": "time remained in solution in D2O", "setting": "[4]; Example 14, 1:3 molar with citric acid", "value": 3, "unit": "days"}]}, {"compound": "CCCCCCCCCCCCO[C@@H]1O[C@H](CO)[C@@H](O[C@H]2O[C@H](CO)[C@@H](O)[C@H](O)[C@H]2O)[C@H](O)[C@H]1O", "note": "[n-Dodecyl-β-D-maltoside]", "values": [{"measurement": "solubility of the sugar in 95% ethanol (observation)", "setting": "[5]; 50 mg in 2.0 mL 95% ethanol", "value": "soluble"}, {"measurement": "solubility of the sugar in water (observation)", "setting": "[5]; 50 mg in 2.0 mL water", "value": "soluble"}, {"measurement": "Sugar Solubility in 95% EtOH", "setting": "[6]", "value": "Soluble"}, {"measurement": "Sugar Solubility in Water", "setting": "[6]", "value": 50, "unit": "mg/mL"}]}, {"compound": "C=C1C[C@@]23CC[C@H]4[C@@](C)(CCC[C@@]4(C)C(=O)O[C@@H]4O[C@H](CO)[C@@H](O)[C@H](O)[C@H]4O)[C@@H]2CC[C@]1(O[C@@H]1O[C@H](CO)[C@@H](O)[C@H](O[C@@H]2O[C@H](CO)[C@@H](O)[C@H](O)[C@H]2O)[C@H]1O[C@@H]1O[C@H](CO)[C@@H](O)[C@H](O)[C@H]1O)C3", "note": "[rebaudioside A]", "values": [{"measurement": "solubility of the sugar in 95% ethanol (observation)", "setting": "[5]; 50 mg in 2.0 mL 95% ethanol", "value": "either insoluble or partially soluble"}, {"measurement": "solubility of the sugar in water (observation)", "setting": "[5]; 50 mg in 2.0 mL water", "value": "soluble"}, {"measurement": "Sugar Solubility in 95% EtOH", "setting": "[6]", "value": "Poorly soluble"}, {"measurement": "Sugar Solubility in Water", "setting": "[6]", "value": "Poorly soluble"}]}, {"compound": "C=C1C[C@@]23CC[C@H]4[C@@](C)(CCC[C@@]4(C)C(=O)O[C@@H]4O[C@H](CO)[C@@H](O)[C@H](O)[C@H]4O[C@@H]4O[C@H](CO)[C@@H](O)[C@H](O)[C@H]4O)[C@@H]2CC[C@]1(O[C@@H]1O[C@H](CO)[C@@H](O)[C@H](O[C@@H]2O[C@H](CO)[C@@H](O)[C@H](O)[C@H]2O)[C@H]1O[C@@H]1O[C@H](CO)[C@@H](O)[C@H](O)[C@H]1O)C3", "note": "[rebaudioside D]", "values": [{"measurement": "solubility of the sugar in water (observation)", "setting": "[5]; [7]", "value": "partially soluble"}, {"measurement": "Sugar Solubility in 95% EtOH", "setting": "[6]", "value": "Insoluble"}, {"measurement": "Sugar Solubility in Water", "setting": "[6]", "value": "100 mg/ml and 88.56 mM"}]}, {"compound": "OC[C@H]1O[C@H](O[C@]2(CCl)O[C@H](CCl)[C@@H](O)[C@@H]2O)[C@H](O)[C@@H](O)[C@H]1Cl", "note": "[sucralose, 1,6-dichloro-1,6-dideoxy-β-D-fructofuranosyl-4-chloro-4-deoxy-α-D-galactopyranoside]", "values": [{"measurement": "solubility of the sugar in 95% ethanol (observation)", "setting": "[5]; 50 mg in 2.0 mL 95% ethanol", "value": "slowly soluble"}, {"measurement": "time to dissolve in 95% ethanol", "setting": "[5]; 50 mg in 2.0 mL 95% ethanol, room temperature", "value": 2, "unit": "h"}, {"measurement": "solubility of the sugar in water (observation)", "setting": "[5]; 50 mg in 2.0 mL water", "value": "soluble"}, {"measurement": "Sugar Solubility in 95% EtOH", "setting": "[6]; at 20° C.", "value": 283, "unit": "g/L at 20 °C"}, {"measurement": "Sugar Solubility in Water", "setting": "[6]; at 20° C.", "value": 110, "unit": "g/L at 20 °C"}]}, {"compound": "dulcoside A", "values": [{"measurement": "solubility of the sugar in water (observation)", "setting": "[5]; [7]", "value": "partially soluble"}, {"measurement": "Sugar Solubility in 95% EtOH", "setting": "[6]", "value": "Partly soluble"}, {"measurement": "Sugar Solubility in Water", "setting": "[6]", "value": 2.28, "unit": "mg/mL"}]}, {"compound": "rebaudioside B", "values": [{"measurement": "solubility of the sugar in water (observation)", "setting": "[5]; [7]", "value": "insoluble in water or poorly soluble"}, {"measurement": "Sugar Solubility in 95% EtOH", "setting": "[6]", "value": "Poorly soluble"}, {"measurement": "Sugar Solubility in Water", "setting": "[6]", "value": "Poorly soluble"}]}]}
